“And” between values parts separate entries of the source, which are not always exact repeats. Identical values can stand only once.
Molecular target: Cannabinoid receptor 1 (Homo sapiens, UniProt P21554)
Assay: Inhibition Assay
Text: Inhibition assay using hCB1.

Chain of Cannabinoid receptor 1 (P21554 whole entry): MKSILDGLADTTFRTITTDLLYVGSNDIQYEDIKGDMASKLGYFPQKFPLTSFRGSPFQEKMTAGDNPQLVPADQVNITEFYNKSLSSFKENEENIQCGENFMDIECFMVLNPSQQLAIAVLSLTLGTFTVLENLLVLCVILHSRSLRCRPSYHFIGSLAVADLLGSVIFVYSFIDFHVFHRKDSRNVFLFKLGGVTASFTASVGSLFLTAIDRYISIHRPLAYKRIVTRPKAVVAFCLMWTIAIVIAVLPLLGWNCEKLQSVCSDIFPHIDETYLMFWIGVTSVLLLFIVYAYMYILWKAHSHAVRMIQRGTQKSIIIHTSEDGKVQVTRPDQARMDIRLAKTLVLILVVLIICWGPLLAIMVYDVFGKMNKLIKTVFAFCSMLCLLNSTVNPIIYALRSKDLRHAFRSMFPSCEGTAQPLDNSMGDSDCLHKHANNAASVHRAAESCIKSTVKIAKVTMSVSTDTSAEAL

| SMILES | IC50 |
| --- | --- |
| CCCCNC(=O)c1cnn(-c2cccc(Cl)c2)c1-c1ccc(-c2ccccc2)cc1 [hCB1 Inhibitor, 2{6,1,1}] | 500 nM and 350 nM |
| O=C(NCCCc1ccccc1)c1cnn(-c2cccc(Cl)c2)c1-c1ccc(-c2ccccc2)cc1 [hCB1 Inhibitor, 2{1,1,1}] | 410 nM and 200 nM |
| CCCCNC(=O)c1cnn(-c2ccccc2C)c1-c1ccc(-c2ccccc2)cc1 [hCB1 Inhibitor, 2{6,1,6}] | 2800 nM |
| Cc1cccc(-n2ncc(C(=O)NCC3CC3)c2-c2ccc(-c3ccccc3)cc2)c1 [hCB1 Inhibitor, 2{5,1,7}] | 620 nM |
| O=C(NCCCc1ccccc1)c1cnn(-c2cccc3ccccc23)c1-c1ccc(-c2ccccc2)cc1 [hCB1 Inhibitor, 2{1,1,3}] | 90 nM |

Next, values leading:

| IC50 | SMILES |
| --- | --- |
| 2700 nM | CCCCNC(=O)c1cnn(-c2cccc(C)c2)c1-c1ccc(-c2ccccc2)cc1 [hCB1 Inhibitor, 2{6,1,7}] |
| 200 nM and 40 nM | Cc1cccc(-n2ncc(C(=O)NCCCc3ccccc3)c2-c2ccc(-c3ccccc3)cc2)c1C [hCB1 Inhibitor, 2{1,1,8}] |
| 200 nM | Cc1cccc(-n2ncc(C(=O)NCCCc3ccccc3)c2-c2ccc(-c3ccccc3)cc2)c1 [hCB1 Inhibitor, 2{1,1,7}] |
| 270 nM and 190 nM | O=C(NCC1CC1)c1cnn(-c2cccc(Cl)c2)c1-c1ccc(-c2ccccc2)cc1 [hCB1 Inhibitor, 2{5,1,1}] |
| 390 nM | Cc1ccccc1-n1ncc(C(=O)NCC2CC2)c1-c1ccc(-c2ccccc2)cc1 [hCB1 Inhibitor, 2{5,1,6}] |
| 200 nM | Cc1ccccc1-n1ncc(C(=O)NCCCc2ccccc2)c1-c1ccc(-c2ccccc2)cc1 [hCB1 Inhibitor, 2{1,1,6}] |
